In patent US20230241031A1, “Composition, Comprising Rip Kinase Inhibitor, For Preventing Hair Loss Or Promoting Hair Regrowth” (Epi Biotech Co., Ltd., priority 2019, published 2023):

How the values were obtained:
[1] = tested on: mouse vibrissae; experiment: Hair growth induction in organ-cultured mouse vibrissae; format: cell-based, mouse (C57BL/6 female mice); conditions: vibrissae cultured 3 days at 37° C.; for degree of hair growth induction (efficacy of promoting hair growth): vs untreated group; for degree of hair growth induction (effect of promoting hair growth): compared to inactive type necrostatin-1, FIG. 1; for degree of hair growth induction: siRNA treatment, vs control siRNA, FIG. 6
Procedure: Specifically, the vibrissae of C57BL/6 female mice were trimmed and organ cultured. […] The vibrissae of the three treatment groups were treated with 10 μM, respectively, and then cultured for 3 days in an incubator at 37° C.
(§1) Specifically, the vibrissae of C57BL/6 female mice were trimmed and organ cultured. The trimmed vibrissae were cultured in a 48-well plate so as to become one per well, and divided into a total of 3 groups: the untreated group (control group), the group treated with 1 μM sibiriline, and the group treated with 10 μM sibiriline. The vibrissae were treated, respectively, and then cultured for 3 days in an incubator at 37° C.
as §1, with “GSK963,” for “sibiriline,”, “GSK963.” for “sibiriline.”
as §1, with “of C57/BL6” for “of C57BL/6”, “of 4” for “of 3”, “μM GSK2982772,” for “μM sibiriline, and”, “μM GSK2982772, and the group treated with 50 μM GSK2982772.” for “μM sibiriline.”
as §1, with “the” for “the untreated”, “treated with RIPK1 siRNA,” for “(control group),”, “RIPK3 siRNA,” for “1 μM sibiriline,”, “control siRNA (control group) in Table 1.” for “10 μM sibiriline.”

[2] = tested on: C3H/HeN mice; experiment: Hair regrowth on the back of depilated mice after topical application; format: in vivo, mouse (C3H/HeN, male); conditions: 100 μl applied to the back, 13 days, FIG. 2
Source text: The hairs of ten 6-week-old male C3H/HeN mice were shaved short using a depilatory machine, and the remaining hairs were completely removed using a depilatory agent, and then they were stabilized for one day before use in the experiment.
Mice were divided into 5 mice per group under the following conditions to conduct an experiment.
After 13 days, the hairs on the back of the mouse in which hair regrowth occurred were shaved using a razor, and then the hairs were obtained, and the weight was measured.

CC(C)(C)C(=O)N1N=CCC1c1ccccc1 (stereo not shown) [GSK963]
degree of hair growth induction (efficacy of promoting hair growth) ([1]; 1 μM): excellent efficacy of promoting hair growth
degree of hair growth induction (efficacy of promoting hair growth) ([1]; 10 μM): excellent efficacy of promoting hair growth

CN1C(=O)[C@@H](NC(=O)c2nnc(Cc3ccccc3)[nH]2)COc2ccccc21 [GSK2982772]
degree of hair growth induction (efficacy of promoting hair growth) ([1]; 1 μM): excellent efficacy of promoting hair growth
degree of hair growth induction (efficacy of promoting hair growth) ([1]; 10 μM): excellent efficacy of promoting hair growth
degree of hair growth induction (efficacy of promoting hair growth) ([1]; 50 μM): excellent efficacy of promoting hair growth

CN1C(=O)C(Cc2c[nH]c3ccccc23)NC1=S (stereo not shown) [necrostatin-1]
degree of hair growth induction (effect of promoting hair growth) ([1]; 10 μM): excellent effect of promoting hair growth compared to the inactive type necrostatin-1

CN1C(=O)NC(Cc2c[nH]c3c(Cl)cccc23)C1=O (stereo not shown) [necrostatin-1s]
degree of hair growth induction (effect of promoting hair growth) ([1]; 10 μM): excellent effect of promoting hair growth compared to the inactive type necrostatin-1
effect of inducing hair growth (appearance of hair growth and weight of the hair) ([2]; 100 μM, vs 2% minoxidil group): more excellent effect of inducing hair growth compared to the group administered with commercially available minoxidil
hair growth effect (appearance of hair growth and weight of the hair) ([2]; group administered with necrostatin-1s (10 μM or 100 μM), vs untreated control group): excellent hair growth effect compared to the untreated control group

Oc1ccc(-c2cc3cccnc3[nH]2)cc1 [sibiriline]
degree of hair growth induction (efficacy of promoting hair growth) ([1]; 1 μM): excellent efficacy of promoting hair growth
degree of hair growth induction (efficacy of promoting hair growth) ([1]; 10 μM): excellent efficacy of promoting hair growth

RIPK1 siRNA: siRNA of SEQ ID NO: 1 and 2 capable of inhibiting RIP kinase expression (chain 1 GUCCUUGUGUUACCACAGA; chain 2 UCUGUGGUAACACAAGGAC; listed as RNA, chemistry not given here)
degree of hair growth induction [1]: hair growth was promoted

RIPK3 siRNA: siRNA of SEQ ID NO: 3 and 4 capable of inhibiting RIP kinase expression (chain 1 CGAGUGAUGUCUACAGCUU; chain 2 AAGCUGUAGACAUCACUCG; listed as RNA, chemistry not given here)
degree of hair growth induction [1]: hair growth was promoted
